Key:
Type in all cases: cell-based
Mycosphaerella arachidis = assay: Action against Mycosphaerella arachidis, fungal growth assay; settings: 0.002% active ingredient, PDB broth, 24° C., photometric after 6-7 days
Procedure: (§1) Action Against Mycosphaerella arachidis (Early Leaf Spot of Groundnut; Cercospora arachidicola [anamorph])—Fungal Growth Assay Conidia of the fungus from cryogenic storage are directly mixed into nutrient broth (PDB potato dextrose broth). After placing a (DMSO) solution of the test compounds (0.002% active ingredient) into a microtiter plate (96-well format) the nutrient broth containing the fungal spores is added. The test plates are incubated at 24° C. and the inhibition of growth is measured photometrically after 6-7 days. The activity of a compound is expressed as fungal growth inhibition (0=no growth inhibition, ratings of 80% to 99% mean good to very good inhibition, 100%=complete inhibition). Compounds 1.01, 1.14 and 1.15 show very good activity in this test (≦80% inhibition). Compounds 1.07 and 2.01 show good activity in this test (≦50% inhibition).

[1] = test system: Pseudocercosporella herpotrichoides var. acuformis; assay: Action against Pseudocercosporella herpotrichoides var. acuformis (eyespot/cereals), fungal growth assay; settings: Oculimacula yallundae; 0.002% active ingredient, PDB broth, 24° C., photometric after 72 hrs
Procedure: as §1, with “Pseudocercosporella herpotrichoides var. acuformis (Eyespot/Cereals)—Fungal” for “Mycosphaerella arachidis (Early Leaf Spot of Groundnut; Cercospora arachidicola [anamorph])—Fungal”, “determined” for “measured”, “72 hrs.” for “6-7 days.”, “(≦30%” for “(≦80%”, “inhibition).” for “inhibition). Compounds 1.07 and 2.01 show good activity in this test (≦50% inhibition).”

Monographella nivalis = assay: Action against Monographella nivalis (snow mould), fungal growth assay; settings: 0.002% active ingredient, PDB broth, 24° C., photometric after 72 hrs
Procedure: Action Against Monographella nivalis (Anamorph: Fusarium nivale, Microdochium nivale; Snow Mould)—Fungal Growth Assay Conidia of the fungus from cryogenic storage are directly mixed into nutrient broth (PDB potato dextrose broth). After placing a DMSO-solution of the test compounds (0.002% active ingredient) into a microtiter plate (96-well format) the nutrient broth containing the fungal spores is added. The test plates are incubated at 24° C. and the inhibition of growth is measured photometrically after 72 hrs (0=no growth inhibition, ratings of 80% to 99% mean good to very good inhibition, 100%=complete inhibition). Compounds 1.14 and 1.15 show very good activity in this test (≦80% inhibition).

Septoria tritici = assay: Action against Septoria tritici, fungal growth assay; settings: Zymoseptoria tritici; 0.002% active ingredient, PDB broth, 24° C., photometric after 72 hrs
Procedure: as §1, with “Septoria tritici—Fungal” for “Mycosphaerella arachidis (Early Leaf Spot of Groundnut; Cercospora arachidicola [anamorph])—Fungal”, “determined” for “measured”, “72 hrs.” for “6-7 days.”, “1.07, 1.14, 1.15, 1.76” for “1.14”, “2.01” for “1.15”, “inhibition).” for “inhibition). Compounds 1.07 and 2.01 show good activity in this test (≦50% inhibition).”

| SMILES | inhibition at 0.002 % strength (Mycosphaerella arachidis) | inhibition at 0.002 % strength [1] | inhibition at 0.002 % strength (Monographella nivalis) | inhibition at 0.002 % strength (Septoria tritici) |
| --- | --- | --- | --- | --- |
| COC(c1ccc(Cl)cc1Cl)C(C)NC(=O)c1cn(C)nc1C(F)F (centres unmarked) [Compound 1.14, 3-difluoromethyl-1-methyl-1H-pyrazole-4-carboxylic acid [2-(2,4-dichlorophenyl)-2-methoxy-1-methyl-ethyl]-amide] | ≤ 80% | ≤ 30% | ≤ 80% | ≤ 80% |
| CONC(c1ccc(Cl)cc1Cl)C(C)NC(=O)c1cn(C)nc1C(F)F (centres unmarked) [Compound 1.76, 3-difluoromethyl-1-methyl-1H-pyrazole-4-carboxylic acid [2-(2,4-dichlorophenyl)-2-methoxyamino-1-methyl-ethyl]-amide] | – | – | – | ≤ 80% |
